# Laboratory results from PubChem BioAssay AID1963858 (Molecular Pharmacology Branch, DTP, NCI, 2024).
# Test system: HOP-62 multicell spheroids with HUVEC/MSC, viability
# Assay: Anticancer human tumor HOP-62 cell line growth inhibition [KRAS2];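 note: viability read after a week of compound exposure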;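 for viability, T/C: 100% = DMSO vehicle-treated spheroids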
# Details: for IC50: curve of first compound; for viability, T/C: stronger effect = lower value
# From the text: Multicellular complex tumor spheroid response to RAS pathway inhibitors in combination with a targeted agents in patient-derived cell lines with oncogenic KRAS variants from multiple cancer types
# A high-throughput screen of multi-cell type tumor spheroids was designed to identify active combinations of targeted small molecules and KRAS pathway inhibitors. Complex spheroids include a stromal component modeled by human endothelial cells (HUVEC) and fibroblasts modeled by human mesenchymal stem cells (MSCs). The concentration ranges selected for each drug and investigational agent were based upon clinically achievable concentrations if the clinical Cmax of the agent was known.
# Compounds. The drugs and investigational agents: BI-3406 (NSC825286), BAY-293 (NSC824723), batoprotafib (TNO155; NSC825523), sotorasib (AMG 510; NSC818433), MRTX1257 (NSC819558), elimusertib (BAY 1895344; NSC800525), molibresib (GSK525762; NSC774829), temuterkib (LY3214996; NSC803410), venetoclax (NSC766270), alisertib (NSC759677), olaparib (NSC753686), talazoparib (NSC767125), erdafitinib (NSC781556), ipatasertib (NSC767898), cabozantinib (NSC761068), nintedanib (NSC756659), abemaciclib (NSC768073), docetaxel (NSC628503), trametinib (NSC758246), and sapanisertib (NSC764658) were obtained from the National Cancer Institute (NCI) Developmental Therapeutics Program Chemical Repository. The FDA-approved anticancer drug set is available from the Developmental Therapeutics Program. […] The stock solutions were prepared in dimethyl sulfoxide (DMSO, Sigma-Aldrich, St. Louis, MO, cat. D2650) at 800-fold the tested concentration and stored at -70 degrees C prior to their use. All drugs and investigational agents were tested over a range starting from a high concentration at or near the clinical Cmax and decreasing in half-log increments. If the clinical Cmax for an agent had not been determined, the highest concentration tested was 10 microM.
# Cell Culture. All cells were maintained in an incubator at 37 degrees C and 5% CO2 with 95% humidity. The PDC lines were cultured according to standard operating procedures established by the NCI PDMR (https://pdmr.cancer.gov/sops/default.htm). Briefly, all PDCs were thawed and cultured in Matrigel-coated flasks prepared with a working solution of 1X Ham's F-12 nutrient mix, without supplementation (Invitrogen, Waltham, MA, cat. 11765054), 100 U/mL penicillin-streptomycin (Invitrogen, cat. 15140122), and 2.5% Matrigel (Corning Inc., Corning, NY, cat. 354248) for the first three passages. All PDCs were cultured in complete DMEM/F-12 media containing advanced DMEM/F-12 (Invitrogen, cat. 12634028), 4.9% defined fetal bovine serum, heat inactivated (HyClone Laboratories Inc., Logan, UT, cat. SH30070.03HI), 389 ng/mL hydrocortisone (Sigma-Aldrich, cat. H4001), 9.7 ng/mL human EGF recombinant protein (Invitrogen, cat. PHG0313), 23.4 microg/mL adenine (Sigma-Aldrich, cat. A2786), 97.3 U/mL penicillin-streptomycin (Invitrogen, cat. 15140122), 1.9 mM L-glutamine (Invitrogen, cat. 25030081), and 9.7 microM Y-27632 dihydrochloride (Tocris Bioscience, Bristol, United Kingdom, cat. 1254). The PDCs were cultured in complete DMEM/F12 media without 9.7 microM Y-27632 dihydrochloride for at least two passages prior to the screen. The established cell line HOP-62 was cultured in RPMI 1640 medium, HEPES (Invitrogen, cat. 22400105) with 10% defined fetal bovine serum (HyClone Laboratories Inc., cat. SH30070.03) and 2 mM L-glutamine (Invitrogen, cat. 25030081). The pooled donor HUVEC were cultured in endothelial cell growth medium 2 (PromoCell, Heidelberg, Germany, cat. C-22011) and the hMSC were cultured in mesenchymal stem cell growth medium 2 (PromoCell, cat. C-28009). For all experiments, HUVEC and hMSC were used at passages </=5, while the malignant cell lines were used at passages </=15. […]
# [1] = second compound 0.1 µM, first compound 0.0316 µM
# [2] = second compound 0.1 µM, first compound 0.1 µM
# [3] = second compound 0.316 µM, first compound 0.0316 µM
# [4] = second compound 0.316 µM, first compound 0.1 µM
# [5] = second compound 1 µM, first compound 0.0316 µM
# [6] = second compound 1 µM, first compound 0.1 µM
# [7] = second compound 3.16 µM, first compound 0.0316 µM
# [8] = second compound 3.16 µM, first compound 0.1 µM
# [9] = second compound 10 µM, first compound 0.0316 µM
# [10] = second compound 10 µM, first compound 0.1 µM
# [11] = second compound 0.1 µM, first compound 0.316 µM
# [12] = second compound 0.1 µM, first compound 1 µM
# [13] = second compound 0.1 µM, first compound 3.16 µM
# [14] = second compound 0.1 µM, first compound 10 µM
# [15] = second compound 0.316 µM, first compound 0.316 µM
# [16] = second compound 0.316 µM, first compound 1 µM
# [17] = second compound 0.316 µM, first compound 3.16 µM
# [18] = second compound 0.316 µM, first compound 10 µM
# [19] = second compound 1 µM, first compound 0.316 µM
# [20] = second compound 1 µM, first compound 1 µM
# [21] = second compound 1 µM, first compound 3.16 µM
# [22] = second compound 1 µM, first compound 10 µM
# [23] = second compound 3.16 µM, first compound 0.316 µM
# [24] = second compound 3.16 µM, first compound 1 µM
# [25] = second compound 3.16 µM, first compound 3.16 µM
# [26] = second compound 3.16 µM, first compound 10 µM
# [27] = second compound 10 µM, first compound 0.316 µM
# [28] = second compound 10 µM, first compound 1 µM
# [29] = second compound 10 µM, first compound 3.16 µM
# [30] = second compound 10 µM, first compound 10 µM
SMILES,IC50 (second compound 0.1 µM) [nM],IC50 (second compound 0.316 µM) [nM],IC50 (second compound 1 µM) [nM],IC50 (second compound 3.16 µM) [nM],IC50 (second compound 10 µM) [nM],"viability, T/C [1] [%]","viability, T/C [2] [%]","viability, T/C [3] [%]","viability, T/C [4] [%]","viability, T/C [5] [%]","viability, T/C [6] [%]","viability, T/C [7] [%]","viability, T/C [8] [%]","viability, T/C [9] [%]","viability, T/C [10] [%]","viability, T/C [11] [%]","viability, T/C [12] [%]","viability, T/C [13] [%]","viability, T/C [14] [%]","viability, T/C [15] [%]",further results
CC(C)n1nc(-c2ccc3oc(N)nc3c2)c2c(N)ncnc21 + C=CC(=O)N1CCN(c2nc(=O)n(-c3c(C)ccnc3C(C)C)c3nc(-c4c(O)cccc4F)c(F)cc23)C(C)C1,< 0.316,0.36,0.592,0.671,< 0.316,10.2,8.15,11.4,8.53,11,8.43,12.4,8.73,11.8,9.42,,,,,,"viability, T/C (second compound 0.1 µM, first compound 0.000316 µM): 42.3%; viability, T/C (second compound 0.1 µM, first compound 0.001 µM): 33.4%; viability, T/C (second compound 0.1 µM, first compound 0.00316 µM): 19.2%; viability, T/C (second compound 0.1 µM, first compound 0.01 µM): 15.4%; viability, T/C (second compound 0.316 µM, first compound 0.000316 µM): 51.1%; viability, T/C (second compound 0.316 µM, first compound 0.001 µM): 41%; viability, T/C (second compound 0.316 µM, first compound 0.00316 µM): 25.3%; viability, T/C (second compound 0.316 µM, first compound 0.01 µM): 14.2%; viability, T/C (second compound 1 µM, first compound 0.000316 µM): 62.8%; viability, T/C (second compound 1 µM, first compound 0.001 µM): 38.9%; viability, T/C (second compound 1 µM, first compound 0.00316 µM): 25.5%; viability, T/C (second compound 1 µM, first compound 0.01 µM): 15.3%; viability, T/C (second compound 3.16 µM, first compound 0.000316 µM): 60.2%; viability, T/C (second compound 3.16 µM, first compound 0.001 µM): 43.8%; viability, T/C (second compound 3.16 µM, first compound 0.00316 µM): 31.9%; viability, T/C (second compound 3.16 µM, first compound 0.01 µM): 18.6%; viability, T/C (second compound 10 µM, first compound 0.000316 µM): 36.9%; viability, T/C (second compound 10 µM, first compound 0.001 µM): 28.8%; viability, T/C (second compound 10 µM, first compound 0.00316 µM): 25%; viability, T/C (second compound 10 µM, first compound 0.01 µM): 16.2%"
COc1cc(Nc2ncc3c(n2)-c2ccc(Cl)cc2C(c2c(F)cccc2OC)=NC3)ccc1C(=O)O + C=CC(=O)N1CCN(c2nc(=O)n(-c3c(C)ccnc3C(C)C)c3nc(-c4c(O)cccc4F)c(F)cc23)C(C)C1,< 31.6,< 31.6,< 31.6,< 31.6,< 31.6,35.3,29.2,42.6,31.5,27.6,38.6,37.6,36.7,39.2,32.3,23.2,23.4,23.3,16.6,31.8,"viability, T/C [16]: 32.6%; viability, T/C [17]: 21.8%; viability, T/C [18]: 20%; viability, T/C [19]: 35.4%; viability, T/C [20]: 31.6%; viability, T/C [21]: 27.7%; viability, T/C [22]: 21.9%; viability, T/C [23]: 34%; viability, T/C [24]: 33.7%; viability, T/C [25]: 28.7%; viability, T/C [26]: 22%; viability, T/C [27]: 31.9%; viability, T/C [28]: 33%; viability, T/C [29]: 33.4%; viability, T/C [30]: 25.5%"
COc1cc2nccc(Oc3ccc(NC(=O)C4(C(=O)Nc5ccc(F)cc5)CC4)cc3)c2cc1OC + C=CC(=O)N1CCN(c2nc(=O)n(-c3c(C)ccnc3C(C)C)c3nc(-c4c(O)cccc4F)c(F)cc23)C(C)C1,1710,1460,2210,1470,< 31.6,50.1,52.9,54.2,54.7,52.9,64.6,55.1,57.3,33,39.8,53.9,73.4,41.3,21.6,57.3,"viability, T/C [16]: 67.6%; viability, T/C [17]: 28.2%; viability, T/C [18]: 37.7%; viability, T/C [19]: 63.4%; viability, T/C [20]: 72.3%; viability, T/C [21]: 44%; viability, T/C [22]: 18.4%; viability, T/C [23]: 63.8%; viability, T/C [24]: 64.5%; viability, T/C [25]: 29.6%; viability, T/C [26]: 15.4%; viability, T/C [27]: 36.7%; viability, T/C [28]: 36%; viability, T/C [29]: 26.6%; viability, T/C [30]: 6.56%"
